Calls of active or inactive are those of the source.
How the values were obtained:
[1] = reduction of Shn3 3'UTR firefly luciferase signal, dose response, Schnurri-3 inhibitor project, cell-based, Clone20 osteoblasts, cherry-pick, set 2 (AID 720490); type: functional;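 also: actives lower the luminescence signal as inhibitors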
[2] = Shn3 3'UTR reporter inhibitors, dose response, cell-based, Clone20 osteoblasts, firefly luciferase, cherry-picked (AID 624132); type: functional;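 also: firefly luciferase luminescence from reporter carrying the Shn3 3'UTR in osteoblasts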
[3] = HepG2 cell cytotoxicity, dose response, cytotoxicity control for Shn3 inhibitor project, CellTiter-Glo, cherry-picked (AID 624134); type: functional, cell-based
[4] = cells; type: functional, cell-based
[5] = cells; type: functional, cell-based; remark: listed apart in the source
[6] = molecular target: 1-phosphatidylinositol 4,5-bisphosphate phosphodiesterase beta-3 (Homo sapiens, UniProt Q01970); assay: Fluorescence-based biochemical high throughput dose response assay to identify inhibitors of phospholipase C isozymes (PLC-B3).
1-phosphatidylinositol 4,5-bisphosphate phosphodiesterase beta-3, sequence (Q01970 whole entry): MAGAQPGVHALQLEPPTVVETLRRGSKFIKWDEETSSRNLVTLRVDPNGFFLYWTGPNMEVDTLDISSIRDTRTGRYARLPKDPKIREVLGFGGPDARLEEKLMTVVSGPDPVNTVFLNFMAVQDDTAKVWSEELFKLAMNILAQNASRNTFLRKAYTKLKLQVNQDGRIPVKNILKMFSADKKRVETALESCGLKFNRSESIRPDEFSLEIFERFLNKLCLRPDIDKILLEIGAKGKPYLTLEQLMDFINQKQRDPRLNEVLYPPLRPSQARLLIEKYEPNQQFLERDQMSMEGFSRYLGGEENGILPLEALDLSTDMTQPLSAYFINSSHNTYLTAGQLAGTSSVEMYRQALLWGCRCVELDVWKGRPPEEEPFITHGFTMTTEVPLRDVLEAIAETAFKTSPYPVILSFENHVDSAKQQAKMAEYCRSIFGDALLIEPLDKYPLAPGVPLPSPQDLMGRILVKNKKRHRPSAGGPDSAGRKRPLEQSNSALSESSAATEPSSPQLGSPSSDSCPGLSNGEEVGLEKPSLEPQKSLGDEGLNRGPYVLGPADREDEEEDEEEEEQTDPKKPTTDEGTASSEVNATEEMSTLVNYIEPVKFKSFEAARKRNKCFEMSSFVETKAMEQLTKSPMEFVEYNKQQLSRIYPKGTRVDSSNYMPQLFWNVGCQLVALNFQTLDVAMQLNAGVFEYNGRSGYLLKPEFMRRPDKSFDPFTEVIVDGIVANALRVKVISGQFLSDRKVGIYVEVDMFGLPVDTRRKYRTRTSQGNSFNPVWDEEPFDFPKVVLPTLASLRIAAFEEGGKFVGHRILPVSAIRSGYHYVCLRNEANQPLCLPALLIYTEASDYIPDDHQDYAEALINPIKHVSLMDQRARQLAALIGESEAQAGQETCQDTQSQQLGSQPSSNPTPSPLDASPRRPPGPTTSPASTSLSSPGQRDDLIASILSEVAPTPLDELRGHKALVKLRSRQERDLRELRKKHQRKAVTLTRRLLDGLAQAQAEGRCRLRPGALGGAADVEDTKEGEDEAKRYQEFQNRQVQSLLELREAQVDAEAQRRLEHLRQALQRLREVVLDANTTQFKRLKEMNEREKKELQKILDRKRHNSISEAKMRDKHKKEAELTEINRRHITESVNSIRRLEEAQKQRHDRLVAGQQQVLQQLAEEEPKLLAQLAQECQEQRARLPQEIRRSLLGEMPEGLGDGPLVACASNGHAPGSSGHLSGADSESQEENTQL

[7] = molecular target: 1-phosphatidylinositol 4,5-bisphosphate phosphodiesterase gamma-1 (Homo sapiens, UniProt P19174); assay: Counterscreen for inhibitors of phospholipase C isozymes (PLC-B3): Fluorescence-based biochemical high throughput dose response assay to identify inhibitors of phospholipase C isozymes (PLC-gamma1).
1-phosphatidylinositol 4,5-bisphosphate phosphodiesterase gamma-1, sequence (P19174 whole entry): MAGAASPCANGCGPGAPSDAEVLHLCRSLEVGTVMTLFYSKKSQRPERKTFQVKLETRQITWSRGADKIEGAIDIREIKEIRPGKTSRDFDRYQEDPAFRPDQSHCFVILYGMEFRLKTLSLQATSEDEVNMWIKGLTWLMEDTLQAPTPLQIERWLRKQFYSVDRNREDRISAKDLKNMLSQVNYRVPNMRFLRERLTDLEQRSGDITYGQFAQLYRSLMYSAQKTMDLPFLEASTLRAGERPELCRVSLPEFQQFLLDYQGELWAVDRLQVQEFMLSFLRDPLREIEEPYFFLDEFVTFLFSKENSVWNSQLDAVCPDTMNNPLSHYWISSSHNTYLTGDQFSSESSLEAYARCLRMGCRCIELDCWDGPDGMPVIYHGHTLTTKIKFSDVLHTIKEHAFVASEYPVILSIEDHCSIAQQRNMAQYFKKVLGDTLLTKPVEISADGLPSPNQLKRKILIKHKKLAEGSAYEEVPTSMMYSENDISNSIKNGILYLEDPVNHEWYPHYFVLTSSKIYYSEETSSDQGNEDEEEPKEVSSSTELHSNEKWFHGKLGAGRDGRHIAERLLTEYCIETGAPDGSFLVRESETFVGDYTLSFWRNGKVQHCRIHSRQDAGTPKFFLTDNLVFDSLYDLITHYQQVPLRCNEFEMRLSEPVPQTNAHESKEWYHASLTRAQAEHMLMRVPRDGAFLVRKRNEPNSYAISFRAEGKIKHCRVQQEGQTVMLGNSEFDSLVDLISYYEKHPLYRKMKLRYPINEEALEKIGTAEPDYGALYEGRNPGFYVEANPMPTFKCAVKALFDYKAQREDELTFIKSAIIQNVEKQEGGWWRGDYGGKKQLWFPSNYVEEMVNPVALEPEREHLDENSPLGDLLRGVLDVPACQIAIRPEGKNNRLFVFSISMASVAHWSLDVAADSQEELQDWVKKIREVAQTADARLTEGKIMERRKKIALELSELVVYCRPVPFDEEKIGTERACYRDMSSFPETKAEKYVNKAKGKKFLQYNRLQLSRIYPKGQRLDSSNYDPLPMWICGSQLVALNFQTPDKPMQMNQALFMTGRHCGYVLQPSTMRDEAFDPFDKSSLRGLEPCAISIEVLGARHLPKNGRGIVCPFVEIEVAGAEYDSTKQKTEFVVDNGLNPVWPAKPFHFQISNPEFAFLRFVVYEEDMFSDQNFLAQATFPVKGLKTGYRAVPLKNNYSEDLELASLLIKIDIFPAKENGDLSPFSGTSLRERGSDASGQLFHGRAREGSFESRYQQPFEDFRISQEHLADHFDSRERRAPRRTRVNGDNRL

[8] = control 3'UTR Renilla luciferase suppression, dose response, counter-screen for Shn3 inhibitor project, cell-based, Clone20-Shn3RL, cherry-picked (AID 624133); type: functional
[9] = molecular target: Tyrosyl-DNA phosphodiesterase 2 (Homo sapiens, UniProt O95551); assay: human TDP2 enzyme inhibitors, dose response, biochemical, epi absorbance, IC50 (AID 743297)
[10] = molecular target: T1, Small ubiquitin-related modifier 1 (Homo sapiens, UniProt P63165); assay: inhibitors of SUMO1 peptide binding, dose response, biochemical, fluorescence polarization, uHTS hits (AID 624382); type: functional; details: read-out: IC50_Mean
T1 sequence (P63165 whole entry): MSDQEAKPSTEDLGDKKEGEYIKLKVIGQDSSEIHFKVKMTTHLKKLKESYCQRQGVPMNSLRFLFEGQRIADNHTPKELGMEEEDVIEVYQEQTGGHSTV

[11] = molecular target: T1, Small ubiquitin-related modifier 1; assay: inhibitors of SUMO1 partner interactions, dose response, biochemical, FRET (AID 624383); type: functional; details: read-out: IC50_Mean
[12] = miR-122 activators in hepatoma reporter cells, dose response, cell-based, Huh7 psiCHECK-miR122, Renilla luciferase, cherry-picked (AID 651956); type: functional;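 also: huh7 hepatoma cells stably carrying a psiCHECK-2 miR-122 sensor plasmid; renilla luciferase signal reporting endogenous miR-122 activity after 48 h compound exposure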
[13] = HEK293T cytotoxicity, dose response, cytotoxicity control for miR-122 modulator project, cell-based, inhibitor set, cherry-pick, set 2 (AID 720697); type: functional
[14] = molecular target: T2, Rac GTPase-activating protein 1 (Homo sapiens, UniProt Q9H0H5); assay: MgcRacGAP GTPase-activating activity inhibitors, confirmation, biochemical, ADP Hunter fluorescence, primary and confirmatory (AID 624330); type: functional
T2 sequence (Q9H0H5 whole entry): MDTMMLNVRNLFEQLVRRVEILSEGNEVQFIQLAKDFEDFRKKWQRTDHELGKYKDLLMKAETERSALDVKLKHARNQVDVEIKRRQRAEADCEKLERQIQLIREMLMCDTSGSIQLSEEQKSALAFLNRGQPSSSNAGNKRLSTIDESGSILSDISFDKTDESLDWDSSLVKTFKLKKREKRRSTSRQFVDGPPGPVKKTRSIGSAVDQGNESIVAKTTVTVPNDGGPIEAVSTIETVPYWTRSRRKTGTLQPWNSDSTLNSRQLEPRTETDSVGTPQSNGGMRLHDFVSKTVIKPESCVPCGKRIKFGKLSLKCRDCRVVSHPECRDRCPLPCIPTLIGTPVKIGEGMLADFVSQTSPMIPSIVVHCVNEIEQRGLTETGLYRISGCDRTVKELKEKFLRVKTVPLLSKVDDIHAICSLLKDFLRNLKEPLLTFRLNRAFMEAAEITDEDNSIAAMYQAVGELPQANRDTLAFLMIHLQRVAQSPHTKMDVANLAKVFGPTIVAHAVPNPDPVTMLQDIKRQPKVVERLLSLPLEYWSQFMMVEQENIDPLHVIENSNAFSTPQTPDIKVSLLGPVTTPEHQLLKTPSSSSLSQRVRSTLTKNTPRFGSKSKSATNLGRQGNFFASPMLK

[15] = non-specific cell cytotoxicity, dose response, cytotoxicity control for PAX8 inhibitor project, plate reader, dry powder samples (AID 743021); type: functional, cell-based
[16] = molecular target: Paired box protein Pax-8 (Homo sapiens, UniProt Q06710); assay: inhibitors of PAX8-driven TPO luciferase reporter, dose response, RMG-I cells, cherry-pick (AID 687027); type: functional, cell-based;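 also: luciferase reporter driven by Pax8 target thyroperoxidase promoter measured by SteadyGlo luminescence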
Paired box protein Pax-8, sequence (Q06710 whole entry): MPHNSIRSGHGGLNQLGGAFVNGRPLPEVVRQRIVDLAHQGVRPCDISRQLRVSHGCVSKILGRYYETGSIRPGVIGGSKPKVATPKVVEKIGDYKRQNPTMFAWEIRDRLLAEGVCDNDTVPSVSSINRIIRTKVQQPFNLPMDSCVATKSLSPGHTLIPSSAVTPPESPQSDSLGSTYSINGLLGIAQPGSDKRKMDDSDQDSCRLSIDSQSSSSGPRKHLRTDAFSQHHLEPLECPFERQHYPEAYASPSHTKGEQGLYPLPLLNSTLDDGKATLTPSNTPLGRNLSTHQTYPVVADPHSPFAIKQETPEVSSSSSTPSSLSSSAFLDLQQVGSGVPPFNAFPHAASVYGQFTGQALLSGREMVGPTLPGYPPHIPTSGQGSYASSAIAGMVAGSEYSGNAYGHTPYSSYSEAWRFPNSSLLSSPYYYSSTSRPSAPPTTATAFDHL

[17] = test system: HEK293; assay: HEK293T cell cytotoxicity, dose response, cytotoxicity control, ATP luminescence, cherry-pick samples (AID 687005); type: functional, cell-based; details: Homo sapiens;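 also: cells exposed to compound for 48 hours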
[18] = HEK293 Cytotoxicity Assay Measured in Cell-Based System Using Plate Reader - 7071-01_Inhibitor_Dose_CherryPick_Activity_Set2.; type: functional
[19] = A375 melanoma cell viability loss, dose response, counter-screen for MITF inhibitor project, CellTiter-Glo luminescence, dry powder, set 4 (AID 624364); type: functional, cell-based; details: A-375;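 also: A375 melanoma cells are MITF independent so this is a counter screen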
[20] = A375 melanoma cell cytotoxicity, dose response, counter-screen for MITF inhibitor project, CellTiter-Glo luminescence, dry powder, set 2 (AID 624489); type: functional, cell-based; details: A-375;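 also: actives are compounds lowering A375 viability meaning general cytotoxicity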
[21] = P. falciparum Dd2 growth inhibitors, dose response, SYBR Green, cherry-picked samples (AID 1159567); type: functional, cell-based
[22] = HepG2 cell cytotoxicity, dose response, cytotoxicity control, cherry-picked samples (AID 1159577); type: functional, cell-based
[23] = P. falciparum Dd2 growth inhibitors, dose response, SYBR Green, dry powder samples (AID 1159566); type: functional, cell-based;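 also: potency for growth inhibition with lower SYBR green DNA signal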
[24] = P. falciparum ATP4 D1247Y mutant growth inhibitors, dose response, NITD609-resistant line, SYBR Green, dry powder (AID 1159571); type: functional, cell-based;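 also: parasites synchronized at ring stage by sorbitol before testing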
[25] = P. falciparum 3D7-ScDHODH growth inhibitors, dose response, SYBR Green, dry powder samples (AID 1159570); type: functional, cell-based;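 also: parasite growth measured after 72 hours of compound exposure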
[26] = HepG2 cell cytotoxicity, dose response, cytotoxicity control, plate reader, dry powder samples (AID 1159569); type: functional, cell-based;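 also: inhibitor potency with signal falling toward the positive control level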
[27] = molecular target: Cytochrome P450 2C9 (Homo sapiens, UniProt P11712)
Cytochrome P450 2C9, sequence (P11712 whole entry): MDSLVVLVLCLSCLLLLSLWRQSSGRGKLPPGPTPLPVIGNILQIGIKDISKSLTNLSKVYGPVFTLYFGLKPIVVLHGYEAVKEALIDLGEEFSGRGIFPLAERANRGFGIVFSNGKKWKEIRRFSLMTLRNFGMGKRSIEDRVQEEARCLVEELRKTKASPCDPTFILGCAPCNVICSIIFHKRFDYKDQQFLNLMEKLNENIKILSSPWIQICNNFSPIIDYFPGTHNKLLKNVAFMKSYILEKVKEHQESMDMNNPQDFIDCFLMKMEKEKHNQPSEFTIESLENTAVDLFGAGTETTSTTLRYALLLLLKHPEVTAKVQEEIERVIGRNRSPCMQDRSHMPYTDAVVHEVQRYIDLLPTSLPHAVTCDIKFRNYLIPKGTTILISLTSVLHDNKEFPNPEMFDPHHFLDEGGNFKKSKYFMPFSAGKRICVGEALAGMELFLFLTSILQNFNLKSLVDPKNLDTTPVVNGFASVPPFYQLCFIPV

[28] = cells; type: functional, cell-based; remark: listed apart in the source
[29] = molecular target: Cytochrome P450 2D6 (Homo sapiens, UniProt P10635);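 also: CYP2D6 member of a cytochrome P450 panel assay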
Cytochrome P450 2D6, sequence (P10635 whole entry): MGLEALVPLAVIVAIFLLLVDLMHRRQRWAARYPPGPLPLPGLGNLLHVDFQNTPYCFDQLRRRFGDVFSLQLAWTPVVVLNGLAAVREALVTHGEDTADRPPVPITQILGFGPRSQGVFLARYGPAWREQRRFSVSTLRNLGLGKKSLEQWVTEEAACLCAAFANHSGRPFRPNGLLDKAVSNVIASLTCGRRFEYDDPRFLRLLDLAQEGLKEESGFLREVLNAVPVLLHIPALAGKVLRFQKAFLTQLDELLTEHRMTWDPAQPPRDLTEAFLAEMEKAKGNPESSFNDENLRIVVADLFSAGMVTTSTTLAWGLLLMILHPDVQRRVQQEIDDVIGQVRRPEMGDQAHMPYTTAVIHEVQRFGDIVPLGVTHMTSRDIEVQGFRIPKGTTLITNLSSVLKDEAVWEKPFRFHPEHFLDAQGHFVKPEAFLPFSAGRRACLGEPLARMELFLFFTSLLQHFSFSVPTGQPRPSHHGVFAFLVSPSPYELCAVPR

[30] = molecular target: T3, Nuclear receptor subfamily 0 group B member 1 (Homo sapiens, UniProt P51843); type: functional, cell-based;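 also: HEK293T cells transfected with SF-1 and DAX-1 plus StAR promoter luciferase reporter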
T3 sequence (P51843 whole entry): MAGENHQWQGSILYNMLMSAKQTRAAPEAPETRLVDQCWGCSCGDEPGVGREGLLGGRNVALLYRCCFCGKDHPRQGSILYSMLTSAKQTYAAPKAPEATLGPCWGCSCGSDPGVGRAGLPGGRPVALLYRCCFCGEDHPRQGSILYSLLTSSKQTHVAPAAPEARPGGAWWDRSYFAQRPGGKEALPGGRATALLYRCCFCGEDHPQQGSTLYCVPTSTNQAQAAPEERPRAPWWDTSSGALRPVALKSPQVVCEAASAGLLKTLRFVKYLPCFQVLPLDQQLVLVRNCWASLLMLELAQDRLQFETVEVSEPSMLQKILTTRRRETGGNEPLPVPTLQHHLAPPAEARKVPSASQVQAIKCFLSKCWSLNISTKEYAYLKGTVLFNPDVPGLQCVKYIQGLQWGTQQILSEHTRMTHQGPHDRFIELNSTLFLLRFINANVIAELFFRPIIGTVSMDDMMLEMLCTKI

[31] = molecular target: Cytochrome P450 3A4 (Homo sapiens, UniProt P08684);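 also: CYP3A4 tested as one member of a cytochrome P450 panel screen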
[32] = Concentration-dependent survival of SW480 colon cancer line, luminescence detection with CellTiter-Glo, half-maximal inhibitory concentration (AID 1117338); type: functional
[33] = CellTiter-Glo luminescent dose response of DLD-1 viability loss (AID 1117352); type: functional
[34] = cytotoxicity in KRAS-transformed pancreatic duct cells, primary screen, cell-based, fluorescence, HTS (AID 431); type: functional; details: Homo sapiens;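 also: cell line used: HPDE-C7K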
[35] = molecular target: Large T antigen (Simian virus 40, UniProt P03070); type: functional, Betapolyomavirus macacae;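 also: Confirmatory-stage PubChem screen for compounds that inhibit SV40 T antigen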
Large T antigen, sequence (P03070 whole entry): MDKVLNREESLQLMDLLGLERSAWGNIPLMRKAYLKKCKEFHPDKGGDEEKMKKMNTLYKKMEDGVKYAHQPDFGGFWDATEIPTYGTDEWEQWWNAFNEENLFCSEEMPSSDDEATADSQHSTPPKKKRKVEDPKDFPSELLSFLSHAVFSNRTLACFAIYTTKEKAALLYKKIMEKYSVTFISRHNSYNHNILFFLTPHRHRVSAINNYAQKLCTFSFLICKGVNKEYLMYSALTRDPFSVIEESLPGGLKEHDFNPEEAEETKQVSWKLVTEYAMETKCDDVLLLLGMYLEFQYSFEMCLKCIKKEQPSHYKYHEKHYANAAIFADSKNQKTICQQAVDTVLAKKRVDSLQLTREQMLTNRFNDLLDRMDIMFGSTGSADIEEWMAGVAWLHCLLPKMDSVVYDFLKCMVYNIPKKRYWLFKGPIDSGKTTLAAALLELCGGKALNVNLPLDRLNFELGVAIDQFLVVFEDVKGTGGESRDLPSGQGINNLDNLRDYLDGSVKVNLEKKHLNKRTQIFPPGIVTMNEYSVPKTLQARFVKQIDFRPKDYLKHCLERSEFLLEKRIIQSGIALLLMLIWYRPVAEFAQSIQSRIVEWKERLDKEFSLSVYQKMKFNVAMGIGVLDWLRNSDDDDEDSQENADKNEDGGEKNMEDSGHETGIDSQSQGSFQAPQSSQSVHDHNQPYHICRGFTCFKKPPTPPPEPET

[36] = cytotoxicity toward HCT116 cells – cell-based, CellTiter-Glo luminescence, IC50, dose response (AID 1117332); type: functional; details: HCT-116
[37] = cytotoxicity in HPDE-C7 cells, cell-based, fluorescence, HTS (AID 430); type: functional; details: Homo sapiens
[38] = cytotoxicity toward Colo320 cells – cell-based, CellTiter-Glo luminescence, IC50, dose response (AID 1117334); type: functional; details: COLO 320
[39] = HCT116 cell viability decrease, GSK3B pretreatment – CellTiter-Glo, IC50, dose response (AID 1117339); type: functional; details: HCT-116
[40] = RKO cell viability reduction, dose response, CellTiter-Glo luminescence (AID 1117322); type: functional
[41] = SNU-C1 cell viability reduction, dose response, CellTiter-Glo luminescence (AID 1117323); type: functional, cell-based

For `COc1ccc(CNC(=O)C(C)n2ccc3cc(S(=O)(=O)N4CCCCCC4)ccc32)cc1` (configuration not stated), the AC50 [1] was 17.4 µM (active), the AC50 [2] was 0.518 µM (active) and the AC50 [3] was > 70 µM (inactive).

For `COc1ccc(OCC(=O)N2CCc3ccccc3C2)cc1`, the EC50 [4] was > 29.9 µM (inactive) and the IC50 [5] was > 29.9 µM (inactive).

For `COc1ccc(CS(=O)(=O)c2nnc[nH]2)cc1`, the IC50 [6] was > 123 µM (inactive) and the IC50 [7] was 15.5 µM (inactive).

In the case of `CCOC(=O)c1oc2ccc(S(=O)(=O)n3nc(-c4ccc(OC)cc4)cc3N)cc2c1C`, the AC50 [1] is reported as 4.68 µM (active), the AC50 [8] is reported as 30 µM (active) and the AC50 [2] is reported as 1.99 µM (active). The AC50 [3] was 60 µM (active).

In the case of `COc1cc(NS(=O)(=O)c2ccc(NC(=O)CN3C(=O)c4ccccc4C3=O)cc2)nc(OC)n1`, the IC50 [6] is reported as > 122 µM (inactive) and the IC50 [7] is reported as > 122 µM (inactive).

For `CCC(CO)Oc1cc(NC(=O)c2cccc(OC)c2)c2ncn(C(C)C)c2c1` (configuration not stated), the IC50 [9] was 36.6 µM (inactive), the IC50 [10] was > 66.6 µM (inactive) and the IC50 [11] was 12.7 µM (active).

With `CNc1nc(NCCOc2ccccc2)c2sccc2n1` the AC50 [12] was 38.3 µM (active) and the AC50 [13] was 4.2 µM (active).

With `CC1NC(C)c2c(ccc3ccccc23)O1` (configuration not stated) the IC50 [14] was 114 µM (active), the EC50 [4] was > 29.9 µM (inactive) and the IC50 [5] was > 29.9 µM (inactive).

In the case of `CCNC(=O)C[C@@H]1CC[C@@H]2[C@H](COc3ccc(NC(=O)Nc4cccc(Cl)c4)cc3C(=O)N2C)O1`, the AC50 [12] is reported as 4.02 µM (active) and the AC50 [13] is reported as < 0.195 µM (active).

With `COC(=O)C1=C(C)N(Cc2ccc(C(F)(F)F)cc2)C(NCc2ccccc2)=NC1c1cccc(F)c1` (configuration not stated) the AC50 [15] was 23.4 µM (active) and the AC50 [16] was 26.8 µM (active).

With `Cc1cccc(-c2ccc([C@@H]3[C@@H](CO)N4CCCCN(S(=O)(=O)c5ccccc5C)C[C@@H]34)cc2)c1` the AC50 [17] was 19.3 µM (active) and the AC50 [18] was 19.3 µM (active).

With `C=CCNC1=C(N2CCSCC2)C(=O)c2ccccc2C1=O` the AC50 [19] was 24.3 µM (active) and the AC50 [20] was 8.56 µM (active).

With `COc1cccc(-c2ccc([C@H]3[C@H](C#N)N(C(=O)Cc4ccncc4)[C@H]3CO)cc2)c1` the AC50 [21] was 4.28 µM (active) and the AC50 [22] was 33.8 µM (active).

In the case of `COc1cc(CN2C[C@@H]3N[C@H](C2)[C@H]3c2ccc(-c3ccncc3)cc2)cc(OC)c1`, the AC50 [23] is reported as 1.16 µM (active), the AC50 [24] is reported as 0.886 µM (active) and the AC50 [25] is reported as 1.33 µM (active). The AC50 [21] was 1.63 µM (active) and the AC50 [26] was 19.6 µM (active).

With `N#C[C@@H]1[C@H](c2ccc(C#CC3CCCCC3)cc2)[C@@H](CO)N1C(=O)Cc1ccccn1` the AC50 [21] was 3.79 µM (active) and the AC50 [22] was > 39 µM (inactive).

With `CC(=O)NC1=C(c2ccc(Cl)cc2)C(=O)c2ccccc2C1=O` the AC50 [19] was 12.4 µM (active) and the AC50 [20] was 9.22 µM (active).

In the case of `O=c1cc(-c2ccccc2)oc2cc(O)cc(O)c12` [CHRYSIN], the AC50 [27] is reported as 5.01 µM (inconclusive), the IC50 [28] is reported as > 67.6 µM (inactive) and the AC50 [29] is reported as 12.6 µM (inconclusive). For the same molecule, the IC50 [30] was > 67.6 µM (inactive) and the AC50 [31] was 3.16 µM (inconclusive).

For `C=C(CC)C(=O)c1ccc(OCC(=O)O)c(Cl)c1Cl` [ETHACRYNIC ACID], the IC50 [32] was > 6.67 µM (inactive), the IC50 [33] was 11.9 µM (inactive) and the EC50 [34] was 11.3 µM (active). The IC50 [35] was > 100 µM (active), the IC50 [36] was > 20 µM (inactive) and the EC50 [37] was 10.4 µM (active). For the same molecule, the IC50 [38] was > 20 µM (inactive), the IC50 [39] was 12.2 µM (inactive) and the IC50 [40] was > 6.67 µM (inactive). The IC50 [41] was > 20 µM (inactive).

For `O=C1Cc2c([nH]c3ccc(Br)cc23)-c2ccccc2N1` [KENPAULLONE], the IC50 [28] was > 67.5 µM (inactive) and the IC50 [30] was > 0.834 µM (active).
